Tests used:
Format in all cases: functional
M14 = assay: Cytotoxicity against human M14 cells assessed as cell growth at 0.01 uM after 48 hrs by sulforhodamine B assay relative to control; settings: M14, 48 h, read-out: Activity
MDA-MB-468 = assay: Cytotoxicity against human MDA-MB-468 cells assessed as cell growth at 1 uM after 48 hrs by sulforhodamine B assay relative to control; settings: MDA-MB-468, 48 h, read-out: Activity
Malme-3M [1] = assay: Cytotoxicity against human MALME-3M cells assessed as cell growth at 1 uM after 48 hrs by sulforhodamine B assay relative to control; settings: read-out: Activity
SK-MEL-28 = assay: Cytotoxicity against human SK-MEL-28 cells assessed as cell growth at 0.1 uM after 48 hrs by sulforhodamine B assay relative to control; settings: SK-MEL-28, 48 h, read-out: Activity
U-251 = assay: Cytotoxicity against human U251 cells assessed as growth inhibition after 48 hrs by sulforhodamine B assay; settings: U-251, 48 h
ACHN [2] = assay: Cytotoxicity against human ACHN cells assessed as cell growth at 100 uM after 48 hrs by sulforhodamine B assay relative to control; settings: read-out: Activity
OVCAR-5 [3] = assay: Cytotoxicity against human OVCAR5 cells assessed as cell growth at 1 uM after 48 hrs by sulforhodamine B assay relative to control; settings: OVCAR-5, 48 h, read-out: Activity
TK-10 = assay: Cytotoxicity against human TK10 cells assessed as growth inhibition after 48 hrs by sulforhodamine B assay; settings: TK-10, 48 h
HT-29 = assay: Cytotoxicity against human HT-29 cells assessed as cell growth at 0.01 uM after 48 hrs by sulforhodamine B assay relative to control; settings: HT-29, 48 h, read-out: Activity
NCI/ADR-RES = assay: Cytotoxicity against human NCI/ADR-RES cells assessed as cell growth at 0.01 uM after 48 hrs by sulforhodamine B assay relative to control; settings: read-out: Activity
K562 = assay: Cytotoxicity against human K562 cells assessed as growth inhibition after 48 hrs by sulforhodamine B assay; settings: K562, 48 h
OVCAR-5 [4] = assay: Cytotoxicity against human OVCAR5 cells assessed as growth inhibition after 48 hrs by sulforhodamine B assay; settings: OVCAR-5, 48 h
RPMI-8226 = assay: Cytotoxicity against human RPMI8226 cells assessed as cell growth at 0.1 uM after 48 hrs by sulforhodamine B assay relative to control; settings: RPMI-8226, 48 h, read-out: Activity
UACC-62 = assay: Cytotoxicity against human UACC62 cells assessed as cell growth at 0.01 uM after 48 hrs by sulforhodamine B assay relative to control; settings: UACC-62, 48 h, read-out: Activity
T47D [5] = assay: Cytotoxicity against human T47D cells assessed as cell growth at 10 uM after 48 hrs by sulforhodamine B assay relative to control; settings: read-out: Activity
786-0 = assay: Cytotoxicity against human 786-0 cells assessed as cell growth at 10 uM after 48 hrs by sulforhodamine B assay relative to control; settings: 786-0, 48 h, read-out: Activity
ACHN [6] = assay: Cytotoxicity against human ACHN cells assessed as growth inhibition after 48 hrs by sulforhodamine B assay
T47D [7] = assay: Cytotoxicity against human T47D cells assessed as cell growth at 1 uM after 48 hrs by sulforhodamine B assay relative to control; settings: read-out: Activity
COLO 205 = assay: Cytotoxicity against human COLO205 cells assessed as growth inhibition after 48 hrs by sulforhodamine B assay; settings: COLO 205, 48 h
HCT-116 = assay: Cytotoxicity against human HCT116 cells assessed as cell growth at 0.01 uM after 48 hrs by sulforhodamine B assay relative to control; settings: HCT-116, 48 h, read-out: Activity
MCF7 = assay: Cytotoxicity against human MCF7 cells assessed as cell growth at 0.01 uM after 48 hrs by sulforhodamine B assay relative to control; settings: MCF7, 48 h, read-out: Activity
HOP-62 = assay: Cytotoxicity against human HOP62 cells assessed as cell growth at 0.01 uM after 48 hrs by sulforhodamine B assay relative to control; settings: HOP-62, 48 h, read-out: Activity
SK-MEL-2 = assay: Cytotoxicity against human SK-MEL-2 cells assessed as growth inhibition after 48 hrs by sulforhodamine B assay; settings: SK-MEL-2, 48 h
HL-60(TB) = assay: Cytotoxicity against human HL-60(TB) cells assessed as cell growth at 1 uM after 48 hrs by sulforhodamine B assay relative to control; settings: HL-60, 48 h, read-out: Activity
BT-549 [8] = assay: Cytotoxicity against human BT549 cells assessed as cell growth at 1 uM after 48 hrs by sulforhodamine B assay relative to control; settings: BT-549, 48 h, read-out: Activity
ACHN [9] = assay: Cytotoxicity against human ACHN cells assessed as cell growth at 10 uM after 48 hrs by sulforhodamine B assay relative to control; settings: read-out: Activity
DU-145 = assay: Cytotoxicity against human DU145 cells assessed as cell growth at 0.1 uM after 48 hrs by sulforhodamine B assay relative to control; settings: DU-145, 48 h, read-out: Activity
SNB-19 = assay: Cytotoxicity against human SNB19 cells assessed as cell growth at 0.01 uM after 48 hrs by sulforhodamine B assay relative to control; settings: SNB-19, 48 h, read-out: Activity
PC-3 = assay: Cytotoxicity against human PC3 cells assessed as cell growth at 10 uM after 48 hrs by sulforhodamine B assay relative to control; settings: PC-3, 48 h, read-out: Activity
NCI-H460 = assay: Cytotoxicity against human NCI-H460 cells assessed as cell growth at 0.01 uM after 48 hrs by sulforhodamine B assay relative to control; settings: NCI-H460, 48 h, read-out: Activity
BT-549 [10] = assay: Cytotoxicity against human BT549 cells assessed as cell growth at 0.1 uM after 48 hrs by sulforhodamine B assay relative to control; settings: BT-549, 48 h, read-out: Activity
NCI-H226 [11] = assay: Cytotoxicity against human NCI-H226 cells assessed as growth inhibition after 48 hrs by sulforhodamine B assay; settings: NCI-H226, 48 h
NCI-H226 [12] = assay: Cytotoxicity against human NCI-H226 cells assessed as cell growth at 1 uM after 48 hrs by sulforhodamine B assay relative to control; settings: NCI-H226, 48 h, read-out: Activity
SF-268 = assay: Cytotoxicity against human SF268 cells assessed as cell growth at 10 uM after 48 hrs by sulforhodamine B assay relative to control; settings: SF-268, 48 h, read-out: Activity
Malme-3M [13] = assay: Cytotoxicity against human MALME-3M cells assessed as growth inhibition after 48 hrs by sulforhodamine B assay
BT-549 [14] = assay: Cytotoxicity against human BT549 cells assessed as cell growth at 10 uM after 48 hrs by sulforhodamine B assay relative to control; settings: BT-549, 48 h, read-out: Activity

COc1cc(-c2cc(/C=C/C(=O)c3ccc(N)cc3)[nH]n2)cc(OC)c1OC
growth at 0.01 µM (M14): 94%
growth at 1 µM (MDA-MB-468): 50%
growth at 1 µM (Malme-3M [1]): 93%
growth at 0.1 µM (SK-MEL-28): 95%
GI50 (U-251): 1.42 µM
LC50 (U-251): 5.39 µM
TGI (U-251): 2.77 µM
growth at 100 µM (ACHN [2]): -63%
growth at 1 µM (OVCAR-5 [3]): 89%
GI50 (TK-10): 4.84 µM
LC50 (TK-10): 51.6 µM
TGI (TK-10): 17.5 µM
growth at 0.01 µM (HT-29): 98%
growth at 0.01 µM (NCI/ADR-RES): 106%
GI50 (K562): 0.72 µM
LC50 (concentration killing 50% of cells) (K562): > 100 µM
TGI (K562): 23.6 µM
GI50 (OVCAR-5 [4]): 1.78 µM
LC50 (OVCAR-5 [4]): 7.91 µM
TGI (OVCAR-5 [4]): 3.75 µM
growth at 0.1 µM (RPMI-8226): 97%
growth at 0.01 µM (UACC-62): 99%
growth at 10 µM (T47D [5]): -38%
growth at 10 µM (786-0): -19%
GI50 (ACHN [6]): 1.61 µM
LC50 (ACHN [6]): 8.4 µM
TGI (ACHN [6]): 3.67 µM
growth at 1 µM (T47D [7]): 66%
GI50 (COLO 205): 1.74 µM
LC50 (COLO 205): 6.42 µM
TGI (COLO 205): 3.34 µM
growth at 0.01 µM (HCT-116): 95%
growth at 0.01 µM (MCF7): 89%
growth at 0.01 µM (HOP-62): 83%
GI50 (SK-MEL-2): 2.85 µM
LC50 (concentration killing 50% of cells) (SK-MEL-2): 31.9 µM
TGI (SK-MEL-2): 7.53 µM
growth at 1 µM (HL-60(TB)): 66%
growth at 1 µM (BT-549 [8]): 73%
growth at 10 µM (ACHN [9]): -61%
growth at 0.1 µM (DU-145): 104%
growth at 0.01 µM (SNB-19): 96%
growth at 10 µM (PC-3): 1%
growth at 0.01 µM (NCI-H460): 102%
growth at 0.1 µM (BT-549 [10]): 93%
GI50 (NCI-H226 [11]): 1.71 µM
LC50 (concentration killing 50% of cells) (NCI-H226 [11]): 7.18 µM
TGI (NCI-H226 [11]): 3.51 µM
growth at 1 µM (NCI-H226 [12]): 88%
growth at 10 µM (SF-268): -55%
GI50 (Malme-3M [13]): 2.05 µM
LC50 (Malme-3M [13]): 14.4 µM
TGI (Malme-3M [13]): 4.71 µM
growth at 10 µM (BT-549 [14]): -89%

Reference: ChEMBL document CHEMBL4138123, “Design, synthesis and biological evaluation of novel pyrazolochalcones as potential modulators of PI3K/Akt/mTOR pathway and inducers of apoptosis in breast cancer cells” (Eur J Med Chem, 2017)
